How the values were obtained:
[1] = system: release of soluble CD160 by IL-15-stimulated PB-NK cells; assay: Anti-CD160 immunoprecipitation and immunoblotting of soluble CD160 in PB-NK cell culture supernatant; assay type: cell-based, human; details: IL-15-stimulated PB-NK cells cultured in the presence of 1,10-PNT; CL1-R2 immunoprecipitation and Western blot
Procedure: Culture medium (10 ml) from transfected COS7 cells was incubated with 5 μg of anti-Flag M2 mAb for 1 h 30 at 4° C., and immune complexes were collected with 20 μl of Protein G-Sepharose beads. Alternatively, 2×10^7 control or IL-15-activated PB-NK lymphocytes were cultured for 24-48 h in 10 ml of RPMI 1640 medium without serum. Culture supernatants were collected and incubated with CL1-R2 mAb (10 μg per test) followed by protein G-Sepharose beads. After washes, the precipitated proteins were separated by SDS-8% PAGE. The proteins were then transferred onto a nitrocellulose membrane and subjected to Western blot analysis using the anti-CD160 (CL1-R2, 5 μg/ml) or anti-Flag M2 (5 μg/ml) mAb. HRP-conjugated goat anti-mouse antibodies (Jackson Immunoresearch, Westgrove, Pa.) were used as secondary antibodies, and the immunoreactive proteins were visualized using an ECL kit (Amersham Biosciences).

[2] = system: CD160 cell surface expression on IL-15-activated PB-NK lymphocytes; assay: Inhibition of the GPI-anchored CD160 cleavage: flow cytometry of membrane-bound CD160 on IL-15-activated PB-NK cells; assay type: cell-based, human; details: 8-12 h after 72 h IL-15, PB-NK cells, anti-CD160 mAb BY55 flow cytometry
Source text: The antibodies used in this study were the following: anti-Flag M2 mAb (Sigma, St Quentin Fallavier, France), rabbit anti-GPI-phospholipase D (Caltag laboratories, Burlingame, Calif.), anti-CD56 mAb (Beckman-Coulter, Marseille, France), and anti-CD160 mAb (BY55 (IgM) and CL1-R2 (IgG1), produced locally). Irrelevant isotype-matched antibodies were used as negative controls. FITC- or PE-conjugated goat anti-mouse IgG or IgM (Beckman-Coulter), or coat anti-rabbit IgG (Caltag laboratories) were utilized as secondary reagents. Cells were phenotyped by indirect i munofluorescence. Briefly, the cells were incubated with the specific mAb for 30 min at 4° C., washed twice in PBS, and further incubated with the appropriated FITC- or PE-labeled secondary antibodies. After washing, cells were analyzed by flow cytometry on an EPICS XL apparatus (Beckman-Coulter). For intracellular staining, the cells were permeabilized in saponin buffer (PBS/0.1% BSA/0.1% saponin) (Sigma) prior to staining, and all subsequent steps were performed in saponin buffer, as described above.
The phospholipase inhibitors U73122, U73343 and 1,10 phenanthroline (1,10 PNT) were purchased from Sigma. 3×10^5/ml PB-NK cells were cultured for 72 h in RPMI 1640 supplemented with 10% heat-inactivated human serum, penicillin/streptomycin, L-glutamine and IL-15 (10 ng/ml; PeproTech, Levallois-Perret, France). […]

SMILES | soluble CD160 protein band immunoprecipitated from culture supernatant [1] | effect on IL-15-induced down-modulation of CD160 cell surface expression ([2]; 1,10 PNT 10 μM) | effect on IL-15-induced down-modulation of CD160 cell surface expression ([2]; U73122 2 μM)
O.c1cnc2c(c1)ccc1cccnc12 [1,10 PNT, 1,10-phenanthroline monohydrate] | no protein band is immunoprecipitated | partially impaired | –
COc1ccc2c(c1)CC[C@@H]1[C@@H]2CC[C@]2(C)[C@@H](NCCCCCCN3C(=O)C=CC3=O)CC[C@@H]12 [U73122] | – | – | not affected
